One experiment deals with rat orexin 1 receptor (Rattus norvegicus, UniProt P56718). In words: Rat orexin 1 receptor radioligand binding. The note with it: rat orexin 1 receptor; averages of 2-20 runs; read-out: rOX1 Ki. An outline of the steps: (§1)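 Ki values derive from one-site competition IC50s corrected with the radioligand's predetermined Kd, triplicates per run, averaged over 2-20 runs. Cell homogenates (rat or human OX1R) compete against [^3H]-thiazolyl-oxadiazolyl-pyrrolidine methanone in PBS; 10 μM almorexant sets nonspecific binding; scintillation counting after washing.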

Another experiment concerns the target human orexin 1 receptor (Homo sapiens, UniProt O43613). Put plainly: Human orexin 1 receptor radioligand binding. The note with it: human orexin 1 receptor; averages of 2-20 runs; read-out: hOX1 Ki. An outline of the steps: as §1
For a further experiment, the target named is human orexin 2 receptor (Homo sapiens (Human), UniProt O43614). In words: Human orexin 2 receptor radioligand binding. The note with it: human orexin 2 receptor; averages of 2-20 runs; read-out: hOX2 Ki. In a few lines:
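Ki derived from one-site competition IC50 using predetermined Kd of [3H]-EMPA, triplicate points, 2-20 runs averaged. Binding done on homogenized HEK293 cells stably expressing human orexin 2 receptor, DMSO ≤0.1%, with 10 μM almorexant defining nonspecific binding; filtered, washed, scintillation counted.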

human orexin 2 receptor, sequence (O43614 whole entry): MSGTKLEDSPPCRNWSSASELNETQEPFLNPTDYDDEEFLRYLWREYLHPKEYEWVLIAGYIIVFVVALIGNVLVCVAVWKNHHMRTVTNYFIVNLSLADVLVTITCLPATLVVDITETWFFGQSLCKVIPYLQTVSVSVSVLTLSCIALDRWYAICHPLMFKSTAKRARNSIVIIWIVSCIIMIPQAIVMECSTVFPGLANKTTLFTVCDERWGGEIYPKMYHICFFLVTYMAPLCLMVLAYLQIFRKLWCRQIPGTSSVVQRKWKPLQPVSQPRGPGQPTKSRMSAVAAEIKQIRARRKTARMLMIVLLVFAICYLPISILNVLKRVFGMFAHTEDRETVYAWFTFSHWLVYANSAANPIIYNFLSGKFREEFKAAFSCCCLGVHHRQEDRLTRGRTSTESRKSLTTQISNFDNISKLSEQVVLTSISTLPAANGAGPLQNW

On to `O=C(c1cc(F)ccc1-n1nccn1)N1C[C@H]2C[C@@H](Oc3ccc(Cl)cn3)[C@@H]1C2` [Example 113, ((1S,4R,6R)-6-((5-chloropyridin-2-yl)oxy)-2-azabicyclo[2.2.1]heptan-2-yl)(5-fluoro-2-(2H-1,2,3-triazol-2-yl)phenyl)methanone], for which the Ki (in general, the dissociation constant of the complex between target and ligand, obtained from inhibition or displacement) is 17 nM at rat orexin 1 receptor, 14 nM at human orexin 1 receptor and 984 nM on human orexin 2 receptor.

With `Cc1ccc(-n2nccn2)c(C(=O)N2C[C@H]3C[C@@H](Oc4ccc(Cl)cn4)[C@@H]2C3)n1` [Example 114, ((1S,4R,6R)-6-((5-chloropyridin-2-yl)oxy)-2-azabicyclo[2.2.1]heptan-2-yl)(6-methyl-3-(2H-1,2,3-triazol-2-yl)pyridin-2-yl)methanone], the inhibition constant Ki on rat orexin 1 receptor came to 11 nM; at human orexin 1 receptor, 23 nM; at human orexin 2 receptor, 668 nM.

As for `O=C(c1cccc(F)c1-c1ncccn1)N1C[C@H]2C[C@@H](Oc3ccc(Cl)cn3)[C@@H]1C2` [Example 115, ((1S,4R,6R)-6-((5-chloropyridin-2-yl)oxy)-2-azabicyclo[2.2.1]heptan-2-yl)(3-fluoro-2-(pyrimidin-2-yl)phenyl)methanone], the values for the Ki on rat orexin 1 receptor, at human orexin 1 receptor and on human orexin 2 receptor were 7 nM, 8 nM and 852 nM, respectively.

With `O=C(c1ccccc1-c1ncc(F)cn1)N1C[C@H]2C[C@@H](Oc3ccc(Cl)cn3)[C@@H]1C2` [Example 116, ((1S,4R,6R)-6-((5-chloropyridin-2-yl)oxy)-2-azabicyclo[2.2.1]heptan-2-yl)(2-(5-fluoropyrimidin-2-yl)phenyl)methanone], the Ki amounted to 11 nM on rat orexin 1 receptor, 12 nM at human orexin 1 receptor and 939 nM on human orexin 2 receptor.

In the case of `O=C(c1cccc(F)c1-c1ncc(F)cn1)N1C[C@H]2C[C@@H](Oc3ccc(Cl)cn3)[C@@H]1C2` [Example 117, ((1S,4R,6R)-6-((5-chloropyridin-2-yl)oxy)-2-azabicyclo[2.2.1]heptan-2-yl)(3-fluoro-2-(5-fluoropyrimidin-2-yl)phenyl)methanone], the results for the Ki on rat orexin 1 receptor, on human orexin 1 receptor and on human orexin 2 receptor were 16 nM, 28 nM and 1600 nM, respectively.

Consider `O=C(c1ccccc1-n1nccn1)N1C[C@H]2C[C@@H](Oc3ccc(F)cn3)[C@@H]1C2` [Example 118, (2-(2H-1,2,3-triazol-2-yl)phenyl)((1S,4R,6R)-6-((5-fluoropyridin-2-yl)oxy)-2-azabicyclo[2.2.1]heptan-2-yl)methanone], for which the Ki was found to be 133 nM at rat orexin 1 receptor, 105 nM at human orexin 1 receptor and 1600 nM on human orexin 2 receptor.

Regarding `O=C(c1cccc(F)c1-c1ncccn1)N1C[C@H]2C[C@@H](Oc3ccc(F)cn3)[C@@H]1C2` [Example 120, (3-fluoro-2-(pyrimidin-2-yl)phenyl)((1S,4R,6R)-6-((5-fluoropyridin-2-yl)oxy)-2-azabicyclo[2.2.1]heptan-2-yl)methanone], the results for the Ki on rat orexin 1 receptor, on human orexin 1 receptor and on human orexin 2 receptor were 60 nM, 111 nM and 4100 nM, respectively.

Turning to `O=C(c1ccccc1-n1nccn1)N1C[C@H]2C[C@@H](Oc3ccc(C(F)F)cn3)[C@@H]1C2` [Example 121, (2-(2H-1,2,3-triazol-2-yl)phenyl)((1S,4R,6R)-6-((5-(difluoromethyl)pyridin-2-yl)oxy)-2-azabicyclo[2.2.1]heptan-2-yl)methanone], the Ki is 10 nM at rat orexin 1 receptor, 11 nM on human orexin 1 receptor and 50 nM on human orexin 2 receptor.

Take `Cc1ccc(-n2nccn2)c(C(=O)N2C[C@H]3C[C@@H](Oc4ccc(C(F)F)cn4)[C@@H]2C3)n1` [Example 122, ((1S,4R,6R)-6-((5-(difluoromethyl)pyridin-2-yl)oxy)-2-azabicyclo[2.2.1]heptan-2-yl)(6-methyl-3-(2H-1,2,3-triazol-2-yl)pyridin-2-yl)methanone]: the figures for the Ki on rat orexin 1 receptor, on human orexin 1 receptor and at human orexin 2 receptor were 28 nM, 30 nM and 218 nM, respectively.

For `O=C(c1cccc(F)c1-c1ncccn1)N1C[C@H]2C[C@@H](Oc3ccc(C(F)F)cn3)[C@@H]1C2` [Example 123, ((1S,4R,6R)-6-((5-(difluoromethyl)pyridin-2-yl)oxy)-2-azabicyclo[2.2.1]heptan-2-yl)(3-fluoro-2-(pyrimidin-2-yl)phenyl)methanone], the Ki on rat orexin 1 receptor was determined as 11 nM; on human orexin 1 receptor it was 10 nM; on human orexin 2 receptor, 149 nM.

In the case of `O=C(c1cc(F)ccc1-n1nccn1)N1C[C@H]2C[C@@H](Oc3cnc(C(F)(F)F)cn3)[C@@H]1C2` [Example 124, (5-fluoro-2-(2H-1,2,3-triazol-2-yl)phenyl)((1S,4R,6R)-6-((5-(trifluoromethyl)pyrazin-2-yl)oxy)-2-azabicyclo[2.2.1]heptan-2-yl)methanone], the values for the Ki on rat orexin 1 receptor, at human orexin 1 receptor and at human orexin 2 receptor were 200 nM, 109 nM and 4500 nM, respectively.

For `Cc1ccc(-n2nccn2)c(C(=O)N2C[C@H]3C[C@@H](Oc4cnc(C(F)(F)F)cn4)[C@@H]2C3)n1` [Example 125, (6-methyl-3-(2H-1,2,3-triazol-2-yl)pyridin-2-yl)((1S,4R,6R)-6-((5-(trifluoromethyl)pyrazin-2-yl)oxy)-2-azabicyclo[2.2.1]heptan-2-yl)methanone], the values for the Ki at rat orexin 1 receptor, on human orexin 1 receptor and on human orexin 2 receptor were 220 nM, 88 nM and 5500 nM, respectively.

Take `O=C(c1cccc(F)c1-c1ncccn1)N1C[C@H]2C[C@@H](Oc3cnc(C(F)(F)F)cn3)[C@@H]1C2` [Example 126, (3-fluoro-2-(pyrimidin-2-yl)phenyl)((1S,4R,6R)-6-((5-(trifluoromethyl)pyrazin-2-yl)oxy)-2-azabicyclo[2.2.1]heptan-2-yl)methanone]: the Ki was 27 nM on rat orexin 1 receptor, 22 nM on human orexin 1 receptor and 4200 nM on human orexin 2 receptor.

Consider `O=C(c1ccc(F)cc1-c1ncccn1)N1C[C@H]2C[C@@H](Oc3cnc(C(F)(F)F)cn3)[C@@H]1C2` [Example 127, (4-fluoro-2-(pyrimidin-2-yl)phenyl)((1S,4R,6R)-6-((5-(trifluoromethyl)pyrazin-2-yl)oxy)-2-azabicyclo[2.2.1]heptan-2-yl)methanone], for which the Ki at rat orexin 1 receptor is 116 nM; at human orexin 1 receptor, 143 nM; on human orexin 2 receptor, more than 10000 nM.

For the molecule `O=C(c1cc(F)ccc1-c1ncccn1)N1C[C@H]2C[C@@H](Oc3cnc(C(F)(F)F)cn3)[C@@H]1C2` [Example 128, (5-fluoro-2-(pyrimidin-2-yl)phenyl)((1S,4R,6R)-6-((5-(trifluoromethyl)pyrazin-2-yl)oxy)-2-azabicyclo[2.2.1]heptan-2-yl)methanone], the inhibition constant (Ki) stood at 69 nM on rat orexin 1 receptor, 62 nM at human orexin 1 receptor and 3800 nM at human orexin 2 receptor.

In the case of `O=C(c1c(F)cccc1-c1ncccn1)N1C[C@H]2C[C@@H](Oc3cnc(C(F)(F)F)cn3)[C@@H]1C2` [Example 129, (2-fluoro-6-(pyrimidin-2-yl)phenyl)((1S,4R,6R)-6-((5-(trifluoromethyl)pyrazin-2-yl)oxy)-2-azabicyclo[2.2.1]heptan-2-yl)methanone], the Ki on rat orexin 1 receptor is 53 nM; at human orexin 1 receptor it was 47 nM; at human orexin 2 receptor, 4400 nM.

Consider `O=C(c1ccccc1-c1ncccn1)N1C[C@H]2C[C@@H](Oc3cnc(C(F)(F)F)cn3)[C@@H]1C2` [Example 130, (2-(pyrimidin-2-yl)phenyl)((1S,4R,6R)-6-((5-(trifluoromethyl)pyrazin-2-yl)oxy)-2-azabicyclo[2.2.1]heptan-2-yl)methanone], for which the Ki amounted to 29 nM at rat orexin 1 receptor, 27 nM on human orexin 1 receptor and 3500 nM at human orexin 2 receptor.

For `Cc1cnc(O[C@@H]2C[C@H]3C[C@@H]2N(C(=O)c2ccccc2-n2nccn2)C3)nc1` [Example 131, (2-(2H-1,2,3-triazol-2-yl)phenyl)((1S,4R,6R)-6-((5-methylpyrimidin-2-yl)oxy)-2-azabicyclo[2.2.1]heptan-2-yl)methanone], the Ki is 140 nM at rat orexin 1 receptor, 132 nM at human orexin 1 receptor and 2200 nM on human orexin 2 receptor.

In the case of `Cc1cnc(O[C@@H]2C[C@H]3C[C@@H]2N(C(=O)c2cccc(F)c2-c2ncccn2)C3)nc1` [Example 133, (3-fluoro-2-(pyrimidin-2-yl)phenyl)((1S,4R,6R)-6-((5-methylpyrimidin-2-yl)oxy)-2-azabicyclo[2.2.1]heptan-2-yl)methanone], the Ki at rat orexin 1 receptor was 60 nM; on human orexin 1 receptor it was 102 nM; at human orexin 2 receptor it was 4200 nM.

For `CCc1cnc(O[C@@H]2C[C@H]3C[C@@H]2N(C(=O)c2ccccc2-n2nccn2)C3)nc1` [Example 135, (2-(2H-1,2,3-triazol-2-yl)phenyl)((1S,4R,6R)-6-((5-ethylpyrimidin-2-yl)oxy)-2-azabicyclo[2.2.1]heptan-2-yl)methanone], the Ki at rat orexin 1 receptor came to 61 nM; on human orexin 1 receptor it was 100 nM; at human orexin 2 receptor it was 1200 nM.

As for `CCc1cnc(O[C@@H]2C[C@H]3C[C@@H]2N(C(=O)c2cccc(F)c2-c2ncccn2)C3)nc1` [Example 137, ((1S,4R,6R)-6-((5-ethylpyrimidin-2-yl)oxy)-2-azabicyclo[2.2.1]heptan-2-yl)(3-fluoro-2-(pyrimidin-2-yl)phenyl)methanone], the Ki was 39 nM at rat orexin 1 receptor, 65 nM at human orexin 1 receptor and 1700 nM at human orexin 2 receptor.

Regarding `O=C(c1ccccc1-n1nccn1)N1C[C@H]2C[C@@H](Oc3ccc(C(F)(F)F)nn3)[C@@H]1C2` [Example 139, (2-(2H-1,2,3-triazol-2-yl)phenyl)((1S,4R,6R)-6-((6-(trifluoromethyl)pyridazin-3-yl)oxy)-2-azabicyclo[2.2.1]heptan-2-yl)methanone], the Ki turned out to be 208 nM on rat orexin 1 receptor, 150 nM at human orexin 1 receptor and 3700 nM at human orexin 2 receptor.

The values are drawn from patent US9611277B2 (Janssen Pharmaceutica NV, priority 2013, dated 2017).
